Where a name gives a salt, the structure may show the parent alone.

What all share (experiment): Method 1: intracellular Ca2+ release (FLIPR, Calcium 5) in recombinant CHO-K1 cells
What all share (type): cell-based

One test addresses T1, human S1PR3 receptor (Homo sapiens, UniProt Q99500).
T1 construct: host or cells: CHO-K1
The conditions noted are these: (1): determined with method 1; read-out: S1P3 EC50. In outline:
(§1)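 CHO-K1 cells co-expressing the receptor, aequorin and Gq/i5 were loaded with Calcium 5 dye for 1 h at 37 °C, adapted 45 min to RT, then given serially diluted compound in HBSS/20 mmol/L Hepes/2.5 mmol/L probenecid/0.1% BSA, pH 7.4. FLIPR fluorescence was read; EC50 came from nonlinear fits normalized to phospho-fingolimod.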

The target of a further test is T2, human S1PR5 receptor (Homo sapiens, UniProt Q9H228).
T2 construct: host or cells: CHO-K1
The conditions noted are these: agonist potency, determined with method 1 (symbols A-D); read-out: S1P5 EC50 range. The procedure, abridged: as §1

For the next test, the target named is T3, human S1PR1 receptor (Homo sapiens, UniProt P21453).
T3 construct: host or cells: CHO-K1
The conditions noted are these: (1): determined with method 1; read-out: S1P1 EC50. The procedure, abridged:
as §1

The target of another test is T4, human S1PR4 receptor (Homo sapiens, UniProt O95977).
T4 construct: host or cells: CHO-K1
T4 sequence (O95977 1-384): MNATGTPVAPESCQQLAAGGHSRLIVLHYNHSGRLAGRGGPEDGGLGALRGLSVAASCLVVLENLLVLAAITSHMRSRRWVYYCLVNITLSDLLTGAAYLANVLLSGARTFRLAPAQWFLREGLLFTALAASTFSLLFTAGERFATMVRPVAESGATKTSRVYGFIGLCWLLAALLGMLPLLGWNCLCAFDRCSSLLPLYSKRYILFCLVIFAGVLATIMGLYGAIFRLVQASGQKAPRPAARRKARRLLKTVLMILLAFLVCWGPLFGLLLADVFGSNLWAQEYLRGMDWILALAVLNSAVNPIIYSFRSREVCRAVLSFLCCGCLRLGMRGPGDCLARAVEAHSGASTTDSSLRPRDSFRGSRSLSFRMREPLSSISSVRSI
The conditions noted are these: (1): determined with method 1; read-out: S1P4 EC50. The procedure, abridged:
as §1

T2 sequence (Q9H228 whole entry): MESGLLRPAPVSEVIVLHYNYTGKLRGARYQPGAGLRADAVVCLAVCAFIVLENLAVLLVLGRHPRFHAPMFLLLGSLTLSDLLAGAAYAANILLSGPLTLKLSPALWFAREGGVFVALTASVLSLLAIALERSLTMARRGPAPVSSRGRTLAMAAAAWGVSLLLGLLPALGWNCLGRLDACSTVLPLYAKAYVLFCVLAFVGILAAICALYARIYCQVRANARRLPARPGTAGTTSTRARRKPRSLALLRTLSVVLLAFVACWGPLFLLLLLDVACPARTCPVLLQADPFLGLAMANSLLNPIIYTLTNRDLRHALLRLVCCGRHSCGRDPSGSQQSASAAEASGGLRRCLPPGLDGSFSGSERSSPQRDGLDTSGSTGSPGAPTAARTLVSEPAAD
T3 sequence (P21453 whole entry): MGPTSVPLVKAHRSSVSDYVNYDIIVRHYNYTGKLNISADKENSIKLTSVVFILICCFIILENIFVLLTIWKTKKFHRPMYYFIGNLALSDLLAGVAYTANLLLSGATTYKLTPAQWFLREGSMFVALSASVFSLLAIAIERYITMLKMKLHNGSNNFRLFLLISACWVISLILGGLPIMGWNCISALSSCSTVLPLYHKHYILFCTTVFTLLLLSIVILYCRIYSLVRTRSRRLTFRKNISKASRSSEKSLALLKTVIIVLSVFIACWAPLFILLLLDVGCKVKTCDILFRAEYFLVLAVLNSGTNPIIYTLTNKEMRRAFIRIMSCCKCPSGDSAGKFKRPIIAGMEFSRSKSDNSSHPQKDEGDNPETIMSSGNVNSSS
T1 sequence (Q99500 whole entry): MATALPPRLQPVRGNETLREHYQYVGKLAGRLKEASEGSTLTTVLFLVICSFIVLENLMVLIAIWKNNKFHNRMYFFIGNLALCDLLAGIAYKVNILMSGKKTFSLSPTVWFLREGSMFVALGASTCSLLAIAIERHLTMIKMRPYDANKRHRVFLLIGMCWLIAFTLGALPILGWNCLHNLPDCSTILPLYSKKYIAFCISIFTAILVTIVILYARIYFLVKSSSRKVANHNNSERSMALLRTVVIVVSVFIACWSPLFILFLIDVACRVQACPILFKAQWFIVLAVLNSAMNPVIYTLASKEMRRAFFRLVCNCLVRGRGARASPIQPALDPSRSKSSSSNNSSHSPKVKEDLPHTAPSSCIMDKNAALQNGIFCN

As usually defined, the EC50 is the concentration at which the effect is half-maximal. In the case of `CC(C)(C)c1ccc(COc2ccc(-c3ccc4c(n3)CCN(CCC(=O)O)C4)cc2)cc1` [Compound 156, 3-(2-(4-((4-(tert-butyl)benzyl)oxy)phenyl)-7,8-dihydro-1,6-naphthyridin-6(5H)-yl)propanoic acid], the EC50 on human S1PR3 receptor was above 1000 nM; at human S1PR5 receptor, below 10 nM; at human S1PR1 receptor it was above 1000 nM; at human S1PR4 receptor it was above 1000 nM.
On to `O=C(O)C1CC(N2CCc3nc(C#Cc4ccccc4)ccc3C2)C1` (stereo not drawn) [Compound 119, 3-(2-(phenylethynyl)-7,8-dihydro-1,6-naphthyridin-6(5H)-yl)cyclobutanecarboxylic acid], for which the EC50 on human S1PR3 receptor was above 1000 nM; at human S1PR5 receptor, 1000 to 10000 nM; at human S1PR1 receptor, above 1000 nM; on human S1PR4 receptor, above 1000 nM.
In the case of `CC(CN1CCc2nc(-c3ccc(OCc4cc(Cl)cc(Cl)c4)cc3)ncc2C1)C(=O)O` (stereo not drawn) [Compound 17, 3-(2-(4-((3,5-dichlorobenzyl)oxy)phenyl)-7,8-dihydropyrido[4,3-d]pyrimidin-6(5H)-yl)-2-methylpropanoic acid], the EC50 is above 1000 nM on human S1PR3 receptor, below 10 nM at human S1PR5 receptor, above 1000 nM at human S1PR1 receptor and above 1000 nM on human S1PR4 receptor.
In the case of `CC(CC(=O)O)CN1CCc2nc(-c3ccc(OCc4ccc(C(F)(F)F)cc4)cc3F)ncc2C1` (stereo not drawn) [Compound 263, 4-[2-[2-fluoro-4-[[4-(trifluoromethyl)phenyl]methoxy]phenyl]-7,8-dihydro-5H-pyrido[4,3-d]pyrimidin-6-yl]-3-methyl-butanoic acid 2,2,2-trifluoroacetic acid salt], the EC50 is above 1000 nM at human S1PR3 receptor, 10 to 100 nM on human S1PR5 receptor, above 1000 nM on human S1PR1 receptor and above 1000 nM at human S1PR4 receptor.
`CC(CC(=O)O)CN1CCc2nc(-c3ccc(OCc4cccc(Cl)c4Cl)cc3)ncc2C1` (stereo not drawn) [Compound 268, 4-[2-[4-[(2,3-dichlorophenyl)methoxy]phenyl]-7,8-dihydro-5H-pyrido[4,3-d]pyrimidin-6-yl]-3-methyl-butanoic acid 2,2,2-trifluoroacetic acid salt]: the EC50 at human S1PR3 receptor is above 1000 nM; at human S1PR5 receptor it was 10 to 100 nM; at human S1PR1 receptor it was above 1000 nM; on human S1PR4 receptor it was above 1000 nM.
For `CC(CC(=O)O)CN1CCc2nc(-c3ccc(OCc4ccc(Cl)cc4)cc3)ncc2C1` (stereo not drawn) [Compound 259, 4-(2-(4-((4-chlorobenzyl)oxy)phenyl)-7,8-dihydropyrido[4,3-d]pyrimidin-6(5H)-yl)-3-methylbutanoic acid], the EC50 at human S1PR3 receptor was above 1000 nM; on human S1PR5 receptor it was 10 to 100 nM; on human S1PR1 receptor, above 1000 nM; on human S1PR4 receptor it was above 1000 nM.
Take `CC(CC(=O)O)CN1CCc2nc(-c3ccc(OCc4ccc(Cl)cc4)cc3)ncc2C1` (single isomer, unassigned; (+)) [Compound 212, (+)-4-(2-(4-((4-chlorobenzyl)oxy)phenyl)-7,8-dihydropyrido[4,3-d]pyrimidin-6(5H)-yl)-3-methylbutanoic acid]: the EC50 is above 1000 nM at human S1PR3 receptor, below 10 nM at human S1PR5 receptor, above 1000 nM on human S1PR1 receptor and above 1000 nM on human S1PR4 receptor.
As for `O=C(O)C1(CN2CCc3nc(-c4ccc(OCc5cccc(Cl)c5)cc4)ncc3C2)CC1` [Compound 1, 1-((2-(4-((3-chlorobenzyl)oxy)phenyl)-7,8-dihydropyrido[4,3-d]pyrimidin-6(5H)-yl)methyl)cyclopropanecarboxylic acid], the concentration giving a half-maximal response (EC50) on human S1PR3 receptor was above 1000 nM; on human S1PR5 receptor it was 100 to 1000 nM; at human S1PR1 receptor, above 1000 nM; on human S1PR4 receptor, above 1000 nM.
`CC(CC(=O)O)CN1CCc2nc(-c3ccc(OCc4ccccc4Cl)cc3F)ncc2C1` (stereo not drawn) [Compound 284, 4-[2-[4-[(2-chlorophenyl)methoxy]-2-fluoro-phenyl]-7,8-dihydro-5H-pyrido[4,3-d]pyrimidin-6-yl]-3-methyl-butanoic acid 2,2,2-trifluoroacetic acid salt]: the EC50 at human S1PR3 receptor is above 1000 nM; on human S1PR5 receptor, 10 to 100 nM; at human S1PR1 receptor it was above 1000 nM; at human S1PR4 receptor it was above 1000 nM.
In the case of `CC(CC(=O)O)CN1CCc2nc(-c3ccc(OCc4cccc(Cl)c4)cc3F)ncc2C1` (stereo not drawn) [Compound 232, 4-(2-(4-((3-chlorobenzyl)oxy)-2-fluorophenyl)-7,8-dihydropyrido[4,3-d]pyrimidin-6(5H)-yl)-3-methylbutanoic acid], the EC50 on human S1PR3 receptor is above 1000 nM; on human S1PR5 receptor, below 10 nM; at human S1PR1 receptor, above 1000 nM; on human S1PR4 receptor, above 1000 nM.
For the compound `CC(CN1CCc2nc(-c3ccc(OCc4ccc(Cl)cc4)cc3)ncc2C1)C(=O)O` (stereo not drawn) [Compound 12, 3-(2-(4-((4-chlorobenzyl)oxy)phenyl)-7,8-dihydropyrido[4,3-d]pyrimidin-6(5H)-yl)-2-methylpropanoic acid], the EC50 is above 1000 nM at human S1PR3 receptor, below 10 nM at human S1PR5 receptor, above 1000 nM at human S1PR1 receptor and above 1000 nM at human S1PR4 receptor.
As for `O=C(O)CCN1CCc2nc(-c3ccc(OCc4cccc(C(F)F)c4)cc3)ccc2C1` [Compound 159, 3-(2-(4-((3-difluoromethylbenzyl)oxy)phenyl)-7,8-dihydro-1,6-naphthyridin-6(5H)-yl)propanoic acid], the EC50 was above 1000 nM at human S1PR3 receptor, below 10 nM on human S1PR5 receptor, above 1000 nM on human S1PR1 receptor and above 1000 nM on human S1PR4 receptor.
`CC(CC(=O)O)CN1CCc2nc(-c3ccc(OCc4ccccc4C(F)(F)F)cc3)ncc2C1` (stereo not drawn) [Compound 254, 3-methyl-4-[2-[4-[[2-(trifluoromethyl)phenyl]methoxy]phenyl]-7,8-dihydro-5H-pyrido[4,3-d]pyrimidin-6-yl]butanoic acid 2,2,2-trifluoroacetic acid salt]: the EC50 on human S1PR3 receptor is above 1000 nM; at human S1PR5 receptor it was below 10 nM; at human S1PR1 receptor, above 1000 nM; on human S1PR4 receptor it was above 1000 nM.
In the case of `Cc1cccc(C)c1COc1ccc(-c2ncc3c(n2)CCN(CC(=O)O)C3)cc1` [Compound 33, 2-(2-(4-((2,6-dimethylbenzyl)oxy)phenyl)-7,8-dihydropyrido[4,3-d]pyrimidin-6(5H)-yl)acetic acid], the EC50 on human S1PR3 receptor is below 1000 nM; on human S1PR5 receptor, 100 to 1000 nM; on human S1PR1 receptor it was above 1000 nM; at human S1PR4 receptor, below 1000 nM.
On to `Cc1cc(-c2ccc3c(n2)CCN(CCC(=O)O)C3)ccc1OCc1ccc(C(F)(F)F)cc1` [Compound 167, 3-(2-(3-methyl-4-((4-(trifluoromethyl)benzyl)oxy)phenyl)-7,8-dihydro-1,6-naphthyridin-6(5H)-yl)propanoic acid], for which the EC50 on human S1PR3 receptor is above 1000 nM; on human S1PR5 receptor, below 10 nM; at human S1PR1 receptor, above 1000 nM; on human S1PR4 receptor, above 1000 nM.
In the case of `CCc1cccc(Cl)c1COc1ccc2c(n1)CCN(C1CC(C(=O)O)C1)C2` (stereo not drawn) [Compound 118, 3-(2-((2-chloro-6-ethylbenzyl)oxy)-7,8-dihydro-1,6-naphthyridin-6(5H)-yl)cyclobutanecarboxylic acid], the EC50 on human S1PR3 receptor is above 1000 nM; on human S1PR5 receptor it was below 10 nM; at human S1PR1 receptor, above 1000 nM; at human S1PR4 receptor, above 1000 nM.
For `CCc1cccc(Cl)c1COc1ncc2c(n1)CCN(CCC(=O)O)C2` [Compound 96, 3-(2-((2-chloro-6-ethylbenzyl)oxy)-7,8-dihydropyrido[4,3-d]pyrimidin-6(5H)-yl)propanoic acid], the EC50 on human S1PR3 receptor is above 1000 nM; on human S1PR5 receptor it was 1000 to 10000 nM; at human S1PR1 receptor it was above 1000 nM; at human S1PR4 receptor, above 1000 nM.
For `O=C(O)CCN1CCc2nc(-c3ccc(OCc4ccc5c(c4)CCC5)cc3)ccc2C1` [Compound 162, 3-(2-(4-((5-indanyl)methoxy)phenyl)-7,8-dihydro-1,6-naphthyridin-6(5H)-yl)propanoic acid], the EC50 on human S1PR3 receptor was above 1000 nM; at human S1PR5 receptor it was below 10 nM; at human S1PR1 receptor it was above 1000 nM; at human S1PR4 receptor, above 1000 nM.
Consider `O=C(O)CCN1CCc2nc(-c3ccc(OCc4ccc(OC(F)F)cc4)cc3)ncc2C1` [Compound 83, 3-(2-(4-((4-(difluoromethoxy)benzyl)oxy)phenyl)-7,8-dihydropyrido[4,3-d]pyrimidin-6(5H)-yl)propanoic acid], for which the EC50 is above 1000 nM on human S1PR3 receptor, below 10 nM on human S1PR5 receptor, above 1000 nM at human S1PR1 receptor and above 1000 nM on human S1PR4 receptor.
With `C[C@H](CC(=O)O)CN1CCc2nc(-c3ccc(CCc4ccc(Cl)cc4)cc3)ncc2C1` [Compound 237, (R)-4-(2-(4-(4-chlorophenethyl)phenyl)-7,8-dihydropyrido[4,3-d]pyrimidin-6(5H)-yl)-3-methylbutanoic acid], the EC50 at human S1PR3 receptor is above 1000 nM; at human S1PR5 receptor, below 10 nM; on human S1PR1 receptor it was above 1000 nM; on human S1PR4 receptor, above 1000 nM.
`Cc1ccccc1C#Cc1ccc2c(n1)CCN(C1CC(C(=O)O)C1)C2` (stereo not drawn) [Compound 121, 3-(2-(o-tolylethynyl)-7,8-dihydro-1,6-naphthyridin-6(5H)-yl)cyclobutanecarboxylic acid]: the EC50 on human S1PR3 receptor is above 1000 nM; on human S1PR5 receptor it was 1000 to 10000 nM; on human S1PR1 receptor, above 1000 nM; at human S1PR4 receptor, above 1000 nM.

(Values after US10556907B2 (AbbVie Inc., priority 2015, dated 2020).)
